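1) Cells in 96-well plates. 2) Compound, 48 h, 5 concentrations. 3) Linear interpolation between surrounding doses. 4) Unreached endpoint = highest concentration. GI50 = concentration required for 50% inhibition of growth. TGI: total growth inhibition.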
What was measured:
Assay in all cases: NCI tumour cell line growth inhibition, 48 h
COLO 205 colon = test system: COLO 205 colon
ACHN renal = test system: ACHN renal
K-562 leukemia = test system: K-562 leukemia
786-0 renal = test system: 786-0 renal
HS 578T breast = test system: HS 578T breast
MDA-MB-435 = test system: MDA-MB-435
SK-MEL-5 melanoma = test system: SK-MEL-5 melanoma
UACC-62 melanoma = test system: UACC-62 melanoma
MALME-3M melanoma = test system: MALME-3M melanoma
NCI/ADR-RES ovarian = test system: NCI/ADR-RES ovarian
SNB-19 CNS = test system: SNB-19 CNS
OVCAR-3 ovarian = test system: OVCAR-3 ovarian
SN12C renal = test system: SN12C renal
SW-620 colon = test system: SW-620 colon
MCF7 breast = test system: MCF7 breast
DU-145 prostate = test system: DU-145 prostate
TK-10 renal = test system: TK-10 renal
HL-60(TB) leukemia = test system: HL-60(TB) leukemia
NCI-H226 lung = test system: NCI-H226 lung
CCRF-CEM leukemia = test system: CCRF-CEM leukemia
U251 CNS = test system: U251 CNS
RXF 393 renal = test system: RXF 393 renal
OVCAR-4 ovarian = test system: OVCAR-4 ovarian
T-47D breast = test system: T-47D breast
NCI-H522 lung = test system: NCI-H522 lung
HOP-62 NSCLC = test system: HOP-62 NSCLC
SK-MEL-28 melanoma = test system: SK-MEL-28 melanoma
HCT-116 colon = test system: HCT-116 colon
RPMI-8226 leukemia = test system: RPMI-8226 leukemia
NCI-H460 lung = test system: NCI-H460 lung
BT-549 breast = test system: BT-549 breast
EKVX NSCLC = test system: EKVX NSCLC
HCC-2998 colon = test system: HCC-2998 colon
UACC-257 melanoma = test system: UACC-257 melanoma
CAKI-1 renal = test system: CAKI-1 renal
A498 renal = test system: A498 renal
HCT-15 colon = test system: HCT-15 colon
SK-MEL-2 melanoma = test system: SK-MEL-2 melanoma
A549 NSCLC = test system: A549 NSCLC
HOP-92 NSCLC = test system: HOP-92 NSCLC
MOLT-4 leukemia = test system: MOLT-4 leukemia
UO-31 renal = test system: UO-31 renal
OVCAR-5 ovarian = test system: OVCAR-5 ovarian
KM12 colon = test system: KM12 colon
LOX IMVI melanoma = test system: LOX IMVI melanoma
SF-295 CNS = test system: SF-295 CNS
SF-539 CNS = test system: SF-539 CNS
SF-268 CNS = test system: SF-268 CNS
PC-3 prostate = test system: PC-3 prostate
SK-OV-3 ovarian = test system: SK-OV-3 ovarian
M14 melanoma = test system: M14 melanoma
OVCAR-8 ovarian = test system: OVCAR-8 ovarian
SNB-75 CNS = test system: SNB-75 CNS
HT29 colon = test system: HT29 colon
MDA-MB-231 breast = test system: MDA-MB-231 breast
NCI-H23 lung = test system: NCI-H23 lung

How did the GI50 (COLO 205 colon) turn out when `COc1cc2c3c(n(CCCN=[N+]=[N-])c(=O)c2cc1OC)-c1ccc(C#N)cc1C3=O` was run?
Its GI50 is 92.3 µM.

What about the TGI (COLO 205 colon) of the same compound?
Its TGI is over 100 µM.

And the GI50 (ACHN renal)?
The GI50 was 3.3 µM.

And the TGI (ACHN renal)?
Its TGI is 13.1 µM.

What about the GI50 (K-562 leukemia) of the same compound?
The GI50 was over 100 µM.

What about the TGI (K-562 leukemia) of the same compound?
Its TGI is over 100 µM.

And the GI50 (786-0 renal)?
The GI50 was 13.1 µM.

What about the TGI (786-0 renal) of the same compound?
Its TGI is 33.7 µM.

What about the GI50 (HS 578T breast) of the same compound?
Its GI50 is 9.67 µM.

What about the TGI (HS 578T breast) of the same compound?
The TGI was 38.9 µM.

What about the GI50 (MDA-MB-435) of the same compound?
Its GI50 is over 100 µM.

What about the TGI (MDA-MB-435) of the same compound?
Its TGI is over 100 µM.

What about the GI50 (SK-MEL-5 melanoma) of the same compound?
The GI50 was over 100 µM.

And the TGI (SK-MEL-5 melanoma)?
Its TGI is over 100 µM.

What about the GI50 (UACC-62 melanoma) of the same compound?
Its GI50 is 12.4 µM.

What about the TGI (UACC-62 melanoma) of the same compound?
The TGI was 37.4 µM.

And the GI50 (MALME-3M melanoma)?
The GI50 was 70.8 µM.

And the TGI (MALME-3M melanoma)?
The TGI was over 100 µM.

And the GI50 (NCI/ADR-RES ovarian)?
Its GI50 is 72.4 µM.

And the TGI (NCI/ADR-RES ovarian)?
The TGI was over 100 µM.

And the GI50 (SNB-19 CNS)?
Its GI50 is 37 µM.

What about the TGI (SNB-19 CNS) of the same compound?
Its TGI is over 100 µM.

And the GI50 (OVCAR-3 ovarian)?
Its GI50 is 17 µM.

And the TGI (OVCAR-3 ovarian)?
The TGI was 58.2 µM.

And the GI50 (SN12C renal)?
The GI50 was 15.7 µM.

And the TGI (SN12C renal)?
Its TGI is over 100 µM.

What about the GI50 (SW-620 colon) of the same compound?
The GI50 was over 100 µM.

What about the TGI (SW-620 colon) of the same compound?
The TGI was over 100 µM.

What about the GI50 (MCF7 breast) of the same compound?
Its GI50 is over 100 µM.

And the TGI (MCF7 breast)?
Its TGI is over 100 µM.

And the GI50 (DU-145 prostate)?
Its GI50 is 34.3 µM.

And the TGI (DU-145 prostate)?
Its TGI is over 100 µM.

What about the GI50 (TK-10 renal) of the same compound?
Its GI50 is 17 µM.

And the TGI (TK-10 renal)?
Its TGI is 34.9 µM.

And the GI50 (HL-60(TB) leukemia)?
Its GI50 is over 100 µM.

What about the TGI (HL-60(TB) leukemia) of the same compound?
Its TGI is over 100 µM.

And the GI50 (NCI-H226 lung)?
Its GI50 is 42.1 µM.

And the TGI (NCI-H226 lung)?
Its TGI is over 100 µM.

What about the GI50 (CCRF-CEM leukemia) of the same compound?
The GI50 was over 100 µM.

What about the TGI (CCRF-CEM leukemia) of the same compound?
Its TGI is over 100 µM.

And the GI50 (U251 CNS)?
Its GI50 is 10.5 µM.

And the TGI (U251 CNS)?
Its TGI is 27.6 µM.

What about the GI50 (RXF 393 renal) of the same compound?
The GI50 was 12.2 µM.

And the TGI (RXF 393 renal)?
Its TGI is 30.2 µM.

What about the GI50 (OVCAR-4 ovarian) of the same compound?
Its GI50 is over 100 µM.

And the TGI (OVCAR-4 ovarian)?
Its TGI is over 100 µM.

What about the GI50 (T-47D breast) of the same compound?
Its GI50 is over 100 µM.

What about the TGI (T-47D breast) of the same compound?
Its TGI is over 100 µM.

And the GI50 (NCI-H522 lung)?
The GI50 was 14.5 µM.

What about the TGI (NCI-H522 lung) of the same compound?
Its TGI is over 100 µM.

And the GI50 (HOP-62 NSCLC)?
The GI50 was 14.2 µM.

And the TGI (HOP-62 NSCLC)?
Its TGI is 33.3 µM.

What about the GI50 (SK-MEL-28 melanoma) of the same compound?
Its GI50 is over 100 µM.

What about the TGI (SK-MEL-28 melanoma) of the same compound?
The TGI was over 100 µM.

And the GI50 (HCT-116 colon)?
Its GI50 is 24.1 µM.

And the TGI (HCT-116 colon)?
The TGI was over 100 µM.

And the GI50 (RPMI-8226 leukemia)?
The GI50 was over 100 µM.

And the TGI (RPMI-8226 leukemia)?
The TGI was over 100 µM.

What about the GI50 (NCI-H460 lung) of the same compound?
Its GI50 is 27.7 µM.

And the TGI (NCI-H460 lung)?
Its TGI is over 100 µM.

And the GI50 (BT-549 breast)?
The GI50 was 12.9 µM.

And the TGI (BT-549 breast)?
Its TGI is 28 µM.

What about the GI50 (EKVX NSCLC) of the same compound?
Its GI50 is 28.9 µM.

And the TGI (EKVX NSCLC)?
Its TGI is over 100 µM.

What about the GI50 (HCC-2998 colon) of the same compound?
The GI50 was 44.6 µM.

What about the TGI (HCC-2998 colon) of the same compound?
The TGI was over 100 µM.

And the GI50 (UACC-257 melanoma)?
Its GI50 is over 100 µM.

What about the TGI (UACC-257 melanoma) of the same compound?
The TGI was over 100 µM.

And the GI50 (CAKI-1 renal)?
Its GI50 is 32 µM.

And the TGI (CAKI-1 renal)?
Its TGI is over 100 µM.

What about the GI50 (A498 renal) of the same compound?
Its GI50 is 18.5 µM.

And the TGI (A498 renal)?
The TGI was 58.5 µM.

And the GI50 (HCT-15 colon)?
Its GI50 is 57.9 µM.

And the TGI (HCT-15 colon)?
The TGI was over 100 µM.

And the GI50 (SK-MEL-2 melanoma)?
The GI50 was 16.6 µM.

What about the TGI (SK-MEL-2 melanoma) of the same compound?
Its TGI is 86.1 µM.

What about the GI50 (A549 NSCLC) of the same compound?
The GI50 was over 100 µM.

What about the TGI (A549 NSCLC) of the same compound?
Its TGI is over 100 µM.

What about the GI50 (HOP-92 NSCLC) of the same compound?
The GI50 was 21.2 µM.

And the TGI (HOP-92 NSCLC)?
The TGI was 79.1 µM.

And the GI50 (MOLT-4 leukemia)?
The GI50 was over 100 µM.

And the TGI (MOLT-4 leukemia)?
The TGI was over 100 µM.

What about the GI50 (UO-31 renal) of the same compound?
Its GI50 is over 100 µM.

What about the TGI (UO-31 renal) of the same compound?
Its TGI is over 100 µM.

What about the GI50 (OVCAR-5 ovarian) of the same compound?
Its GI50 is 88.7 µM.

And the TGI (OVCAR-5 ovarian)?
The TGI was over 100 µM.

What about the GI50 (KM12 colon) of the same compound?
Its GI50 is over 100 µM.

And the TGI (KM12 colon)?
Its TGI is over 100 µM.

And the GI50 (LOX IMVI melanoma)?
Its GI50 is 16.9 µM.

What about the TGI (LOX IMVI melanoma) of the same compound?
The TGI was 46 µM.

What about the GI50 (SF-295 CNS) of the same compound?
The GI50 was 14.1 µM.

What about the TGI (SF-295 CNS) of the same compound?
The TGI was 31.5 µM.

What about the GI50 (SF-539 CNS) of the same compound?
The GI50 was 17.4 µM.

And the TGI (SF-539 CNS)?
Its TGI is 47.2 µM.

What about the GI50 (SF-268 CNS) of the same compound?
The GI50 was 17.7 µM.

And the TGI (SF-268 CNS)?
The TGI was over 100 µM.

And the GI50 (PC-3 prostate)?
Its GI50 is over 100 µM.

And the TGI (PC-3 prostate)?
Its TGI is over 100 µM.

And the GI50 (SK-OV-3 ovarian)?
The GI50 was 15.5 µM.

What about the TGI (SK-OV-3 ovarian) of the same compound?
The TGI was 40.3 µM.

What about the GI50 (M14 melanoma) of the same compound?
Its GI50 is 46.7 µM.

What about the TGI (M14 melanoma) of the same compound?
Its TGI is over 100 µM.

What about the GI50 (OVCAR-8 ovarian) of the same compound?
Its GI50 is 49.1 µM.

What about the TGI (OVCAR-8 ovarian) of the same compound?
Its TGI is over 100 µM.

What about the GI50 (SNB-75 CNS) of the same compound?
Its GI50 is 4.27 µM.

And the TGI (SNB-75 CNS)?
Its TGI is 21.4 µM.

What about the GI50 (HT29 colon) of the same compound?
The GI50 was over 100 µM.

What about the TGI (HT29 colon) of the same compound?
The TGI was over 100 µM.

And the GI50 (MDA-MB-231 breast)?
The GI50 was 2.93 µM.

And the TGI (MDA-MB-231 breast)?
Its TGI is 16.2 µM.

What about the GI50 (NCI-H23 lung) of the same compound?
Its GI50 is 8.75 µM.

And the TGI (NCI-H23 lung)?
Its TGI is 22 µM.
